In publication PMC8286840, “Identifying SARS-CoV-2 antiviral compounds by screening for small molecule inhibitors of Nsp3 papain-like protease” (Biochemical Journal, 2021):
Where a name gives a salt, the structure may show the parent alone. Read-outs that look alike come from different tables or passages of the source. *1 amine or outer side, *2 acyl side, *3 side chain or, on linkers, in order; H or OH if unused. Where a SMILES comes first, the peptide text is derived from it. Side-chain parts run from the residue outwards. [ ]: non-standard residue; d: D form. The star is where a group is joined. Ethylenediamine = C(CN[*:2])N[*:1]; Hyp = O=C(O)[C@@H]1C[C@@H](O)CN1; Phg = N[C@H](C(=O)O)c1ccccc1; CO = O=C([*:1])[*:2]; Bn = c1ccc(C*)cc1

What was measured:
[1] = biological target: T1, SARS-CoV-2 PLpro (nsp3 1564–1878) (Severe acute respiratory syndrome coronavirus 2, UniProt P0DTD1); assay: biochemical; design: FRET-quenched peptide (Pro3) cleavage by PLpro, 10 min pre-incubation, slope over 20 min, normalised to no-compound control; conditions: low concentration screen, read-out: % of control remaining
[2] = biological target: T1, SARS-CoV-2 PLpro (nsp3 1564–1878); assay: biochemical; design: FRET-quenched peptide (Pro3) cleavage by PLpro, 10 min pre-incubation, slope over 20 min, normalised to no-compound control; conditions: high concentration screen, read-out: % of control remaining

Clc1ccc(N/N=C(\c2ccccc2)c2ccccn2)nc1 [(E)-5-chloro-2-(2-(phenyl(pyridin-2-yl)methylene)hydrazinyl)pyridine] gave a remaining activity at 1.25 µM ([1]; Well no.=5428) of 91.3% and a remaining activity at 3.75 µM ([2]; Well no.=5428) of 96.4%.

O=C(O)CC(=O)CC(=O)O [3-Oxopentanedioic acid] showed a remaining activity at 1.25 µM ([1]; Well no.=7499) of 97.9% and a remaining activity at 3.75 µM ([2]; Well no.=7499) of 99.7%.

With CN(C)CCC=C1c2ccccc2COc2ccccc21 [Doxepin hydrochloride] the remaining activity at 1.25 µM ([1]; Well no.=451) was 105% and the remaining activity at 3.75 µM ([2]; Well no.=451) was 102%.

Cc1cc(N2C[C@@H](C)N[C@@H](C)C2)ncc1-c1ccc(-c2nc3c(ccn3C)c(=O)[nH]2)cc1 [AZ6102] showed a remaining activity at 1.25 µM ([1]; Well no.=8482) of 97.8% and a remaining activity at 3.75 µM ([2]; Well no.=8482) of 96.4%.

CCN1C(=O)C=CC1=O [N-Ethylmaleimide] showed a remaining activity at 1.25 µM ([1]; Well no.=461) of 102%, a remaining activity at 1.25 µM ([1]; Well no.=4101) of 88.4% and a remaining activity at 3.75 µM ([2]; Well no.=461) of 101%. For the same compound, the remaining activity at 3.75 µM ([2]; Well no.=4101) was 95.8%.

CC(C)c1ccc(NC(=O)Cn2cnc3c2c(=O)n(C)c(=O)n3C)cc1 [HC-030031] gave a remaining activity at 1.25 µM ([1]; Well no.=5225) of 94% and a remaining activity at 3.75 µM ([2]; Well no.=5225) of 89.7%.

C=C[C@]12CN(C)[C@@H]3[C@H]4CO[C@H](C[C@H]41)[C@]1(C(=O)Nc4ccccc41)[C@@H]32 showed a remaining activity at 1.25 µM ([1]; Well no.=3460) of 98% and a remaining activity at 3.75 µM ([2]; Well no.=3460) of 99%.

COc1cc2nc(N3CCN(C(=O)C4COc5ccccc5O4)CC3)nc(N)c2cc1OC (stereo not drawn) [Doxazosin] gave a remaining activity at 1.25 µM ([1]; Well no.=1988) of 103% and a remaining activity at 3.75 µM ([2]; Well no.=1988) of 104%.

In the case of CC(C)Oc1cccnc1N(C)C1CCN(Cc2ccccc2)CC1 [U-101958 maleate], the remaining activity at 1.25 µM ([1]; Well no.=1526) is reported as 93.8% and the remaining activity at 3.75 µM ([2]; Well no.=1526) is reported as 92.1%.

Cc1ccc(C(=O)N(CCCN)[C@@H](c2oc3cc(Cl)ccc3c(=O)c2Cc2ccccc2)C(C)C)cc1 [SB 743921] showed a remaining activity at 1.25 µM ([1]; Well no.=4812) of 97.2% and a remaining activity at 3.75 µM ([2]; Well no.=4812) of 100%.

CC(C)(C=O)Cc1cc(C(C)(C)C)c(O)c(C(C)(C)C)c1 [CGP-13501] gave a remaining activity at 1.25 µM ([1]; Well no.=91) of 105% and a remaining activity at 3.75 µM ([2]; Well no.=91) of 105%.

For C[N+]1(C)[C@@H]2C[C@@H](OC(=O)C(O)(c3cccs3)c3cccs3)C[C@H]1[C@@H]1O[C@@H]12 [Tiotropium Bromide hydrate], the remaining activity at 1.25 µM ([1]; Well no.=4912) was 100% and the remaining activity at 3.75 µM ([2]; Well no.=4912) was 95.8%.

With CCCCCOC(=O)Nc1nc(=O)n([C@@H]2O[C@H](C)[C@@H](O)[C@H]2O)cc1F [Capecitabine] the remaining activity at 1.25 µM ([1]; Well no.=2290) was 96.5% and the remaining activity at 3.75 µM ([2]; Well no.=2290) was 96.5%.

For O=C(N[C@@H](Cc1ccccc1)C(=O)CCl)OCc1ccccc1 [Z-L-Phe chloromethyl ketone], the remaining activity at 1.25 µM ([1]; Well no.=238) was 100% and the remaining activity at 3.75 µM ([2]; Well no.=238) was 101%.

COc1cc2c(cc1CC=C(C)C)C(=O)C[C@@H](c1ccc(O)cc1)O2 [Bavachinin A] gave a remaining activity at 1.25 µM ([1]; Well no.=3243) of 100% and a remaining activity at 3.75 µM ([2]; Well no.=3243) of 99%.

Compound CCC[C@H](NC(=O)/C(C#N)=C/c1cccc(Br)n1)c1ccccc1 [WP1130] has a remaining activity at 1.25 µM ([1]; Well no.=4862) of 95.4% and a remaining activity at 3.75 µM ([2]; Well no.=4862) of 98.1%.

COc1ccc(NS(=O)(=O)c2sc3ccc(Cl)cc3c2C)cc1N1CCNCC1 [SB 271046] gave a remaining activity at 1.25 µM ([1]; Well no.=4934) of 94.2% and a remaining activity at 3.75 µM ([2]; Well no.=4934) of 92.4%.

For CCS(=O)(=O)c1ccc(CC(=O)Nc2cc(Cl)c(-c3ccccc3OC(F)(F)F)c(Cl)c2)cc1 [GSK805], the remaining activity at 1.25 µM ([1]; Well no.=8657) was 103% and the remaining activity at 3.75 µM ([2]; Well no.=8657) was 94.7%.

Work on CCN(CC)CCNC(=O)c1ccc(NC(C)=O)cc1 [N-Acetylprocainamide hydrochloride] yielded a remaining activity at 1.25 µM ([1]; Well no.=19) of 104% and a remaining activity at 3.75 µM ([2]; Well no.=19) of 103%.

CNC[C@H](O)c1ccc(O)c(O)c1 (racemic) gave a remaining activity at 1.25 µM ([1]; Well no.=605) of 99.5% and a remaining activity at 3.75 µM ([2]; Well no.=605) of 99.2%.

Work on CC(C)(C)[C@@H]1NC(=O)O[C@@H]2CCC[C@H]2OC/C=C/C(F)(F)c2nc3ccccc3nc2O[C@@H]2C[C@@H](C(=O)N[C@]3(C(=O)NS(=O)(=O)C4(C)CC4)C[C@H]3C(F)F)N(C2)C1=O [Glecaprevir] yielded a remaining activity at 1.25 µM ([1]; Well no.=8512) of 103% and a remaining activity at 3.75 µM ([2]; Well no.=8512) of 93.8%.

For Cc1cn[nH]c1 [4-Methylpyrazole hydrochloride], the remaining activity at 1.25 µM ([1]; Well no.=776) was 98.4% and the remaining activity at 3.75 µM ([2]; Well no.=776) was 99.2%.

For O=C(O)CCNC(=O)c1ccc(/N=N/c2ccc(O)c(C(=O)O)c2)cc1 [Balsalazide], the remaining activity at 1.25 µM ([1]; Well no.=7362) was 96.6% and the remaining activity at 3.75 µM ([2]; Well no.=7362) was 92.1%.

Nc1cccc(S(=O)(=O)N2CCCN(S(=O)(=O)c3ccc4c(c3)OCCO4)CC2)c1 [DASA-58] showed a remaining activity at 1.25 µM ([1]; Well no.=8818) of 95.3% and a remaining activity at 3.75 µM ([2]; Well no.=8818) of 96.9%.

Cc1cncc2cccc(S(=O)(=O)N3CCCN(C(=O)CN)C[C@@H]3C)c12 [Rho Kinase Inhibitor IV] was tested, and the remaining activity at 1.25 µM ([1]; Well no.=2559) was 104% and the remaining activity at 3.75 µM ([2]; Well no.=2559) was 105%.

Compound O=C(O)CCCC[C@@H]1CCSS1 [Lipoic acid] has a remaining activity at 1.25 µM ([1]; Well no.=6915) of 105% and a remaining activity at 3.75 µM ([2]; Well no.=6915) of 104%.

CNCCC(Oc1ccc(C(F)(F)F)cc1)c1ccccc1 (stereo not drawn) [Fluoxetine] gave a remaining activity at 1.25 µM ([1]; Well no.=2102) of 96.6% and a remaining activity at 3.75 µM ([2]; Well no.=2102) of 98.8%.

In the case of c1ccc2nc(C3=NCCN3)ccc2c1 [BU224 hydrochloride], the remaining activity at 1.25 µM ([1]; Well no.=39) is reported as 102% and the remaining activity at 3.75 µM ([2]; Well no.=39) is reported as 105%.

In the case of NCCCC[C@@H]1NC(=O)[C@@H](Cc2c[nH]c3ccccc23)NC(=O)[C@H](c2ccccc2)NC(=O)[C@@H]2C[C@@H](OC(=O)NCCN)CN2C(=O)[C@H](Cc2ccccc2)NC(=O)[C@H](Cc2ccc(OCc3ccccc3)cc2)NC1=O [Pasireotide (ditrifluoroacetate)] (cyclo([Hyp]([CO-Ethylenediamine])[Phg][dW]KY(Bn)F)), the remaining activity at 1.25 µM ([1]; Well no.=7988) is reported as 96.1% and the remaining activity at 3.75 µM ([2]; Well no.=7988) is reported as 101%.

C=C1C[C@H]2[C@@H]3C=C(C)C4=CC(=O)CC[C@]4(C)[C@H]3CC[C@]2(C)[C@@]1(OC(C)=O)C(C)=O [Melengestrol Acetate] showed a remaining activity at 1.25 µM ([1]; Well no.=2238) of 99.1% and a remaining activity at 3.75 µM ([2]; Well no.=2238) of 99.4%.

Work on COc1ccc(Cl)c(Nc2nc3ccccc3nc2NS(=O)(=O)c2cccc(NC(=O)C(C)(C)N)c2)c1 [XL147] yielded a remaining activity at 1.25 µM ([1]; Well no.=4669) of 105% and a remaining activity at 3.75 µM ([2]; Well no.=4669) of 106%.

O=C(O)CC[N+](=O)[O-] [3-Nitropropionic acid] gave a remaining activity at 1.25 µM ([1]; Well no.=953) of 100% and a remaining activity at 3.75 µM ([2]; Well no.=953) of 99.4%.

For N[C@@H](Cc1c[nH]cn1)C(=O)O [L-Histidine hydrochloride], the remaining activity at 1.25 µM ([1]; Well no.=422) was 92.7% and the remaining activity at 3.75 µM ([2]; Well no.=422) was 94.7%.

With O=C1Nc2ccccc2C2(CCN(CCc3ccc(C(F)(F)F)cc3)CC2)O1 [RS102895 (hydrochloride)] the remaining activity at 1.25 µM ([1]; Well no.=8003) was 98.5%, the remaining activity at 1.25 µM ([1]; Well no.=8275) was 106% and the remaining activity at 3.75 µM ([2]; Well no.=8003) was 93.3%. It also gave a remaining activity at 3.75 µM ([2]; Well no.=8275) of 104%.
